Values joined by “and” are separate entries in the source; they are usually repeats but may differ in a detail not shown here. Identical values can stand only once. Like-named read-outs stand apart in the source and are kept apart here.
Columns and labels:
PANC-1 and Fadu cells = test: CellTiter-Glo viability, statements covering both cancer cell lines; type: cell-based, human; details: Homo sapiens; 25 µM; in either of the cancer cell lines; read-out: drop in viability at 25 µM
Procedure: The effects of the synthesized compounds on cell viability were measured using the CellTiter-Glo® luminescent cell viability assay (Promega, Madison, WI, USA), according to the manufacturer’s instructions. […] After seeding, cells were incubated for a further 48 h before treatment. Cells were treated with the compounds for 72 h. […] After treatment, the luminescence signal was recorded using a microplate reader (BioTek Synergy 2 Multi-Mode Reader, BioTek, Winooski, VT, USA).

[1] = system: PANC-1, Fadu, A2058 and EBC-1 cell lines; design: method as in PMID 35455465; details: 10 µM; cited from earlier work
PANC-1 and A2058 cells = system: PANC-1 and A2058 cells; design: method as in PMID 35455465; details: 24 h exposure time; cited from earlier work
Fadu cells = test: CellTiter-Glo luminescent cell viability assay, Fadu; details: for viability at 2.8 µM: read-out: Cell Viability (% of Control) 2.8 µM, Fadu; for viability at 2.8 µM / viability at 8.3 µM / viability at 25 µM: mean ± SD, n = 2; for viability at 8.3 µM: read-out: Cell Viability (% of Control) 8.3 µM, Fadu; for viability at 25 µM: read-out: Cell Viability (% of Control) 25 µM, Fadu
PANC-1 cells = test: CellTiter-Glo luminescent cell viability assay, PANC-1; details: for viability at 2.8 µM: read-out: Cell Viability (% of Control) 2.8 µM, PANC-1; for viability at 2.8 µM / viability at 8.3 µM / viability at 25 µM: mean ± SD, n = 2; for viability at 8.3 µM: read-out: Cell Viability (% of Control) 8.3 µM, PANC-1; for viability at 25 µM: read-out: Cell Viability (% of Control) 25 µM, PANC-1
[2] = CellTiter-Glo luminescent cell viability assay, primary fibroblasts; details: human, primary skin fibroblasts (non-tumorous), Primer fibroblast Cell viability (% of controll), 72 h, dose–response, individual replicates
[3] = system: non-tumorous primary fibroblast cells; test: as above; details: for Primer fibroblast Cell viability (% of controll): dose–response, individual replicates
[4] = 1 μM, 72 h, dose–response, individual replicates
[5] = 1.5 μM, 72 h, dose–response, individual replicates
[6] = 2.3 μM, 72 h, dose–response, individual replicates
[7] = 3.4 μM, 72 h, dose–response, individual replicates
[8] = 5.1 μM, 72 h, dose–response, individual replicates
[9] = 7.7 μM, 72 h, dose–response, individual replicates
[10] = 17.3 μM, 72 h, dose–response, individual replicates
[11] = 26 μM, 72 h, dose–response, individual replicates
[12] = Homo sapiens, FaDu, 72 h, 72 h, first-set screening
[13] = Homo sapiens, FaDu, 72 h, 72 h, second-set screening
[14] = Homo sapiens, PANC-1, 72 h, 72 h, first-set screening
[15] = Homo sapiens, PANC-1, 72 h, 72 h, second-set screening

Question: Which results are given for NCC#Cc1ccc(CN2C(=O)C3=C(CCN(Cc4ccc(-n5cc(-c6ccccc6)nn5)cc4)C3)N3CCN=C23)cc1 [I/B, reference compound]?
Answer: viability at 25 µM (PANC-1 and Fadu cells): 0 to 1%; viable cells after treatment in colony formation assays [1]: no viable cells could be observed; apoptosis induction (PANC-1 and A2058 cells): far more efficient in apoptosis induction than ONC201; Fadu Cell viability (% of controll) (Fadu cells; [4]): 116 % of controll; Fadu Cell viability (% of controll) (Fadu cells; [5]): 108 % of controll and 114 % of controll; Fadu Cell viability (% of controll) (Fadu cells; [6]): 112 % of controll; Fadu Cell viability (% of controll) (Fadu cells; [7]): 112 % of controll; Fadu Cell viability (% of controll) (Fadu cells; [8]): 107 % of controll; Fadu Cell viability (% of controll) (Fadu cells; [9]): 100 % of controll and 97 % of controll; Fadu Cell viability (% of controll) (Fadu cells; [10]): 0 % of controll; Fadu Cell viability (% of controll) (Fadu cells; [11]): 0 % of controll; viability at 2.8 µM (Fadu cells; [12]): 112 ± 7%; viability at 2.8 µM (Fadu cells; [13]): 112 ± 7%; viability at 8.3 µM (Fadu cells; [12]): 103 ± 6%; viability at 8.3 µM (Fadu cells; [13]): 103 ± 6%; viability at 25 µM (Fadu cells; [12]): 0%; viability at 25 µM (Fadu cells; [13]): 0%; viability at 0.7 µM (Fadu cells; Homo sapiens, FaDu, 72 h, read-out: Fadu Cell viability (% of controll), 0.7 μM, 72 h, dose–response, individual replicates): 106%; viability at 1 µM (Fadu cells; Homo sapiens, FaDu, 72 h, read-out: Fadu Cell viability (% of controll), 1 μM, 72 h, dose–response, individual replicates): 112%; viability at 1.5 µM (Fadu cells; Homo sapiens, FaDu, 72 h, read-out: Fadu Cell viability (% of controll), 1.5 μM, 72 h, dose–response, individual replicates): 109%; viability at 2.3 µM (Fadu cells; Homo sapiens, FaDu, 72 h, read-out: Fadu Cell viability (% of controll), 2.3 μM, 72 h, dose–response, individual replicates): 110%; viability at 3.4 µM (Fadu cells; Homo sapiens, FaDu, 72 h, read-out: Fadu Cell viability (% of controll), 3.4 μM, 72 h, dose–response, individual replicates): 105%; viability at 5.1 µM (Fadu cells; Homo sapiens, FaDu, 72 h, read-out: Fadu Cell viability (% of controll), 5.1 μM, 72 h, dose–response, individual replicates): 104%; viability at 7.7 µM (Fadu cells; Homo sapiens, FaDu, 72 h, read-out: Fadu Cell viability (% of controll), 7.7 μM, 72 h, dose–response, individual replicates): 93%; viability at 17.3 µM (Fadu cells; Homo sapiens, FaDu, 72 h, read-out: Fadu Cell viability (% of controll), 17.3 μM, 72 h, dose–response, individual replicates): 0%; viability at 26 µM (Fadu cells; Homo sapiens, FaDu, 72 h, read-out: Fadu Cell viability (% of controll), 26 μM, 72 h, dose–response, individual replicates): 0%; IC50 (Fadu cells; Homo sapiens, FaDu, 72 h, read-out: IC50 Value ± SEM Fadu, 72 h treatment, best-fit values, n = 3): 10.3 ± 0.17 µM; IC50 (Fadu cells; Homo sapiens, FaDu, read-out: Fadu IC50 values, Mean, mean of independently fitted replicate IC50 values (Supplement S.6)): 10.4 µM; IC50 (Fadu cells; Homo sapiens, FaDu, read-out: Fadu IC50 values, individual replicates n1-n3, IC50 independently determined for each replicate measurement (Supplement S.6)): 11 µM; Selectivity Index (SI) Fibroblast/Fadu (Fadu cells; ratio of mean best-fit IC50 for primary fibroblasts and best-fit IC50 for Fadu): 1.1; IC50 (Fadu cells; read-out: Fadu IC50 values, individual replicates n1-n3, IC50 independently determined for each replicate measurement (Supplement S.6)): 9.91 µM and 10.2 µM; PANC-1 Cell viability (% of controll) (PANC-1 cells; 0.7 μM, 72 h, dose–response, individual replicates): 106 % of controll and 104 % of controll; PANC-1 Cell viability (% of controll) (PANC-1 cells; [4]): 106 % of controll and 107 % of controll; PANC-1 Cell viability (% of controll) (PANC-1 cells; [5]): 111 % of controll; PANC-1 Cell viability (% of controll) (PANC-1 cells; [6]): 113 % of controll; PANC-1 Cell viability (% of controll) (PANC-1 cells; [7]): 113 % of controll; PANC-1 Cell viability (% of controll) (PANC-1 cells; [8]): 109 % of controll and 116 % of controll; PANC-1 Cell viability (% of controll) (PANC-1 cells; [9]): 72 % of controll and 90 % of controll; PANC-1 Cell viability (% of controll) (PANC-1 cells; [10]): 0 % of controll; PANC-1 Cell viability (% of controll) (PANC-1 cells; [11]): 0 % of controll; viability at 2.8 µM (PANC-1 cells; [14]): 113 ± 4%; viability at 2.8 µM (PANC-1 cells; [15]): 113 ± 4%; viability at 8.3 µM (PANC-1 cells; [14]): 61 ± 22%; viability at 8.3 µM (PANC-1 cells; [15]): 61 ± 22%; viability at 25 µM (PANC-1 cells; [14]): 0%; viability at 25 µM (PANC-1 cells; [15]): 0%; IC50 (PANC-1 cells; Homo sapiens, PANC-1, 72 h, read-out: IC50 Value ± SEM PANC-1, 72 h treatment, best-fit values, n = 3): 8.2 ± 0.41 µM; viability at 0.7 µM (PANC-1 cells; Homo sapiens, PANC-1, 72 h, read-out: PANC-1 Cell viability (% of controll), 0.7 μM, 72 h, dose–response, individual replicates): 102%; viability at 1 µM (PANC-1 cells; Homo sapiens, PANC-1, 72 h, read-out: PANC-1 Cell viability (% of controll), 1 μM, 72 h, dose–response, individual replicates): 111%; viability at 1.5 µM (PANC-1 cells; Homo sapiens, PANC-1, 72 h, read-out: PANC-1 Cell viability (% of controll), 1.5 μM, 72 h, dose–response, individual replicates): 111%; viability at 2.3 µM (PANC-1 cells; Homo sapiens, PANC-1, 72 h, read-out: PANC-1 Cell viability (% of controll), 2.3 μM, 72 h, dose–response, individual replicates): 112%; viability at 3.4 µM (PANC-1 cells; Homo sapiens, PANC-1, 72 h, read-out: PANC-1 Cell viability (% of controll), 3.4 μM, 72 h, dose–response, individual replicates): 108%; viability at 5.1 µM (PANC-1 cells; Homo sapiens, PANC-1, 72 h, read-out: PANC-1 Cell viability (% of controll), 5.1 μM, 72 h, dose–response, individual replicates): 112%; viability at 7.7 µM (PANC-1 cells; Homo sapiens, PANC-1, 72 h, read-out: PANC-1 Cell viability (% of controll), 7.7 μM, 72 h, dose–response, individual replicates): 72%; viability at 17.3 µM (PANC-1 cells; Homo sapiens, PANC-1, 72 h, read-out: PANC-1 Cell viability (% of controll), 17.3 μM, 72 h, dose–response, individual replicates): 0%; viability at 26 µM (PANC-1 cells; Homo sapiens, PANC-1, 72 h, read-out: PANC-1 Cell viability (% of controll), 26 μM, 72 h, dose–response, individual replicates): 0%; IC50 (PANC-1 cells; Homo sapiens, PANC-1, read-out: PANC-1 IC50 values, Mean, mean of independently fitted replicate IC50 values (Supplement S.6)): 8.19 µM; IC50 (PANC-1 cells; Homo sapiens, PANC-1, read-out: PANC-1 IC50 values, individual replicates n1-n3, IC50 independently determined for each replicate measurement (Supplement S.6)): 8.43 µM; Selectivity Index (SI) Fibroblast/PANC-1 (PANC-1 cells; ratio of mean best-fit IC50 for primary fibroblasts and best-fit IC50 for PANC-1): 1.3; IC50 (PANC-1 cells; read-out: PANC-1 IC50 values, individual replicates n1-n3, IC50 independently determined for each replicate measurement (Supplement S.6)): 7.99 µM and 8.15 µM; viability at 72 h, 0.7 µM ([2]; 0.7 μM): 93%; viability at 72 h, 1 µM ([2]; 1 μM): 99%; viability at 72 h, 1.5 µM ([2]; 1.5 μM): 105%; viability at 72 h, 2.3 µM ([2]; 2.3 μM): 100%; viability at 72 h, 3.4 µM ([2]; 3.4 μM): 101%; viability at 72 h, 5.1 µM ([2]; 5.1 μM): 104%; viability at 72 h, 7.7 µM ([2]; 7.7 μM): 92%; viability at 72 h, 17.3 µM ([2]; 17.3 μM): 0%; viability at 72 h, 26 µM ([2]; 26 μM): 0%; Primer fibroblast Cell viability (% of controll) ([3]; 0.7 μM, 72 h): 98 % of controll and 97 % of controll; Primer fibroblast Cell viability (% of controll) ([3]; 1.5 μM, 72 h): 108 % of controll and 98 % of controll; Primer fibroblast Cell viability (% of controll) ([3]; 2.3 μM, 72 h): 107 % of controll and 98 % of controll; Primer fibroblast Cell viability (% of controll) ([3]; 3.4 μM, 72 h): 109 % of controll and 98 % of controll; Primer fibroblast Cell viability (% of controll) ([3]; 5.1 μM, 72 h): 110 % of controll and 98 % of controll; Primer fibroblast Cell viability (% of controll) ([3]; 7.7 μM, 72 h): 107 % of controll; Primer fibroblast Cell viability (% of controll) ([3]; 17.3 μM, 72 h): 0 % of controll; Primer fibroblast Cell viability (% of controll) ([3]; 26 μM, 72 h): 0 % of controll; IC50 ([3]; Homo sapiens, Fibroblast, 72 h, read-out: IC50 Value ± SEM Primary Fibroblast, 72 h treatment, best-fit values, n = 3): 11 ± 0.65 µM; IC50 ([3]; Homo sapiens, Fibroblast, read-out: Primary fibroblast IC50 values, Mean, mean of independently fitted replicate IC50 values (Supplement S.6), ONC201 value mathematically estimated from inflection point): 11.2 µM; IC50 ([3]; Homo sapiens, Fibroblast, read-out: Primary fibroblast IC50 values, individual replicates n1-n3, IC50 independently determined for each replicate (Supplement S.6), ONC201 value mathematically estimated from inflection point, viability stayed above 50%): 11.1 µM; IC50 ([3]; read-out: Primary fibroblast IC50 values, individual replicates n1-n3, IC50 independently determined for each replicate (Supplement S.6), ONC201 value mathematically estimated from inflection point, viability stayed above 50%): 11.1 µM and 11.4 µM
